# Assay results: ChEMBL document CHEMBL5113368, “Meroterpenoids produced by fungi: Occurrence, structural diversity, biological activities, and their molecular targets” (Eur J Med Chem, 2021)
# Experiments:
# MGC-803 = test: Cytotoxicity against human MGC-803 cells assessed as cell growth inhibition measured after 72 hrs by MTT assay; format: functional
# [1] = Cytotoxicity against rat IEC-6 cells assessed as cell growth inhibition by WST-1 assay; format: toxicity, cell-based
# A549 = test: Cytotoxicity against human A549 cells assessed as cell growth inhibition by CCK-8 method; format: functional, cell-based
# [2] = molecular target: T1, Prostaglandin G/H synthase 2 (Homo sapiens, UniProt P35354); test: Inhibition of human recombinant COX-2 pretreated with compound for 10 mins followed by substrate addition for 10 mins by fluorescent inhibitor screening assay
# T1 sequence (P35354 whole entry): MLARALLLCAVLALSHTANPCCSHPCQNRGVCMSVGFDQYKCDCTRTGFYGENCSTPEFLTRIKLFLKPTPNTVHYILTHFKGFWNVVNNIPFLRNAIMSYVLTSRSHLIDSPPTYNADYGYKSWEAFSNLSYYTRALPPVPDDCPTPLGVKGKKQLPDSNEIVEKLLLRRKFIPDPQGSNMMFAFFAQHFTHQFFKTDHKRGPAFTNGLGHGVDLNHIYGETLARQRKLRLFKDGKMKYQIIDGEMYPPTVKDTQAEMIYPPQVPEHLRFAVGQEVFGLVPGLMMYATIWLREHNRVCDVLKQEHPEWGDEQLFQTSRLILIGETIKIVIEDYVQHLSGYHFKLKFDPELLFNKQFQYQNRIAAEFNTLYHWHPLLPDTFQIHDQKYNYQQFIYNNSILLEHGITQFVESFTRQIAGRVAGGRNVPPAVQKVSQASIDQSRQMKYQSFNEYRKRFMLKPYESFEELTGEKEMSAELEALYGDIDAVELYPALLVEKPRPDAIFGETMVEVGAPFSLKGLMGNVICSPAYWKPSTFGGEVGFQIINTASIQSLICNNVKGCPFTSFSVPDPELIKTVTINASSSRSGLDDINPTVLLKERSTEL
# Salmonella typhi = test: Antibacterial activity against Salmonella typhi assessed as reduction in microbial growth by modified broth dilution test; format: functional, Salmonella enterica subsp. enterica serovar Typhi; conditions: Salmonella enterica
# Fusarium graminearum = test: Antifungal activity Fusarium graminearum assessed as inhibition of fungal growth by microbroth dilution method; format: functional
# KB [3] = test: Cytotoxicity against human KB cells assessed as cell growth inhibition; format: functional, cell-based
# NCI-H187 [4] = test: Cytotoxicity against human NCI-H187 cells assessed as cell growth inhibition; format: functional, cell-based
# Plasmodium falciparum = test: Antimalarial activity multidrug-resistant Plasmodium falciparum K1 assessed as inhibition of parasite growth by [3H]-hypoxanthine incorporation assay; format: functional, organism-based
# Suid alphaherpesvirus 1 = test: Antiviral activity against pseudorabies virus assessed as inhibition of viral growth; format: functional, organism-based
# KB [5] = test: Cytotoxicity against human KB cells assessed as cell growth inhibition by colorimetric method; format: functional, cell-based
# NCI-H187 [6] = test: Cytotoxicity against human NCI-H187 cells assessed as cell growth inhibition by colorimetric method; format: functional, cell-based
# BC1 cell line = test: Cytotoxicity against human BC1 cells assessed as cell growth inhibition by colorimetric method; format: functional, cell-based
# Hepatitis C virus = test: Antiviral activity against Hepatitis C virus infected in human Huh7.5 cells assessed as inhibition of viral replication; format: functional, organism-based, Hepacivirus hominis
# HL-60 [7] = test: Cytotoxicity against human HL-60 cells assessed as cell growth inhibition measured after 24 hrs by MTT assay; format: functional, cell-based; conditions: HL-60, 24 h
# [8] = Cytotoxicity against human Caco-2 cells assessed as cell growth inhibition measured after 24 hrs by MTT assay; format: toxicity, cell-based
# THP-1 = test: Cytotoxicity against human THP-1 cells assessed as cell growth inhibition measured after 24 hrs by MTT assay; format: functional, cell-based; conditions: THP-1, 24 h
# RAW264.7 = test: Antiinflammatory activity in mouse RAW264.7 cells assessed as decrease in LPS-induced IL-6 expression at 40 uM preincubated for 2 hrs followed by LPS-stimulation for 22 hrs by ELISA analysis relative to control; format: functional; conditions: time 24 hrs
# Vibrio parahaemolyticus = test: Antibacterial activity against Vibrio parahaemolyticus assessed as bacterial growth inhibition incubated for 24 hrs by absorbance based analysis; format: functional
# Vibrio alginolyticus = test: Antibacterial activity against Vibrio alginolyticus assessed as bacterial growth inhibition incubated for 24 hrs by absorbance based analysis; format: functional
# Vibrio anguillarum = test: Antibacterial activity against Vibrio anguillarum assessed as bacterial growth inhibition incubated for 24 hrs by absorbance based analysis; format: functional
# Candida albicans = test: Antifungal activity against Candida albicans assessed as fungal growth inhibition incubated for 24 hrs by absorbance based analysis; format: functional
# HeLa = test: Cytotoxicity against human HeLa cells assessed as cell growth inhibition measured after 48 hrs by MTT assay; format: functional, cell-based
# SGC-7901 = test: Cytotoxicity against human SGC-7901 cells assessed as cell growth inhibition measured after 48 hrs by MTT assay; format: functional, cell-based; conditions: SGC-7901, 48 h
# HL-60 [9] = test: Cytotoxicity against human HL-60 cells assessed as cell growth inhibition measured after 48 hrs by MTT assay; format: functional, cell-based; conditions: HL-60, 48 h
compound,measurement,setting,value
CC(=O)OC[C@@]1(C)[C@@H]2C[C@H](OC(C)=O)[C@@]3(C)Oc4cc(-c5ccccc5)oc(=O)c4[C@H](O)[C@@H]3[C@@]2(C)C=C[C@@H]1O,CC50,MGC-803,19.1 µM
C=C1[C@@]2(C)C[C@H]3C(=C)[C@]4(C=CC(=O)OC4(C)C)CC[C@]3(C)[C@@]13C(=O)O[C@@H](C)[C@@]3(O)C2=O,IC50,[1],2.52 µg/mL
CC(C)=CCC/C(C)=C/CCC1=C[C@]2(OC1=O)c1cc(O)ccc1OC(=O)[C@]2(CC/C=C(\C)CCC=C(C)C)CC(=O)c1cc(O)ccc1O (racemic),IC50,A549,7.14 µM
same,IC50,[2],1.29 µM
Cc1oc(=O)c2c(c1C)O[C@]1(C)[C@H](O)[C@@H]3O[C@](O)(CC[C@H](C)[C@H]1C2)C(C)(C)C3=O,MIC,Salmonella typhi,12.5 µg/mL
same,MIC,Fusarium graminearum,12.5 µg/mL
CC(=O)O[C@H]1C[C@@H](OC(C)=O)[C@@]2(C)[C@@H](CC[C@]3(C)[C@@H]2CC[C@]2(C)Oc4oc(C)cc(=O)c4C[C@@H]32)C1(C)C,IC50,KB [3],32.7 µM
same,IC50,NCI-H187 [4],32.7 µM
same,IC50,Plasmodium falciparum,6.67 µM
C[C@@H]1Cc2c3c(cc(O)c2C(=O)O1)O[C@]1(C)CCC[C@](C)([C@H]2C[C@@H](O)C2(C)C)[C@H]1C3,EC50,Suid alphaherpesvirus 1,3.35 µM
Cc1cc2c(c(=O)o1)C[C@H]1[C@]3(C)CC[C@H]4C(C)(C)[C@@H](O)CC[C@]4(C)[C@H]3CC[C@]1(C)O2,IC50,KB [5],2.9 µg/mL
same,IC50,NCI-H187 [6],9.8 µg/mL
same,IC50,BC1 cell line,8.7 µg/mL
CC1=C(O)C(=O)[C@@]23[C@H](C)CC[C@@H]2[C@H](C)CO[C@]32Oc3cc(O)cc(CO)c3C=C12,IC50,Hepatitis C virus,9.5 µM
C=C1[C@@]2(C)C[C@H]3[C@@]4(C)C(=CC[C@]3(C)[C@]1(C(=O)OC)C(=O)[C@@](C)(O)C2=O)C(C)(C)C(=O)C[C@H]4O [BERKELEYTRIONE],IC50,HL-60 [7],3.4 µM
same,IC50 at 24 h,[8],10.5 µM
same,IC50,THP-1,4.3 µM
Cc1oc(=O)c2c(c1C)O[C@@]1(C)[C@@H]([C@@H](C)[C@]3(O)CC(=O)C(C)(C)C(=O)[C@@]3(O)[C@H]1O)[C@H]2O,inhibition at 40 µM,RAW264.7,69%
CC(C)(O)[C@H](O)CC[C@]1(C)[C@@H](O)CC[C@@]2(C)[C@H]1CC[C@H]1Cc3c([nH]c4ccccc34)[C@@]12C,MIC,Vibrio parahaemolyticus,6.3 µM
same,MIC,Vibrio alginolyticus,3.1 µM
same,MIC,Vibrio anguillarum,3.1 µM
CC(C)(O)[C@@H]1C[C@@H](O)[C@]2(C(=O)O)[C@H](CC[C@@]3(C)[C@H]2CC[C@H]2Cc4c([nH]c5ccccc45)[C@@]23C)O1,MIC,Candida albicans,12.5 µg/mL
COc1ccc(O)c2c1[C@@H]1C=C(CC/C=C(/C)C2)C(=O)O1,IC50,HeLa,23.5 µM
same,IC50,SGC-7901,14.5 µM
CC1=C[C@H]2c3c(O)cc(C)c(C(=O)O)c3OC(C)(C)[C@H]2CC1 (relative stereo),IC50,HL-60 [9],24.1 µM
